The record followed here is patent publication US7749981B2, “Drug-eluting stents coated with non-nucleotide P2Y12 receptor antagonist compound” (Inspire Pharmaceuticals, Inc., priority 2005, dated 2010).

Where two headings read alike, the source gives them in different places.

The assay deals with washed human platelets. Description: Inhibition of ADP-induced platelet aggregation in washed human platelets. Particulars: for activity as antagonists of P2Y12-mediated platelet aggregation (in words): comment on Table 1 data; for IC50: agonist challenge (ADP) typically 1-5 μM, average of two experiments or more. Format: cell-based. The method, then: Isolation of Platelets: Human blood is obtained from informed healthy adult volunteers. Blood is collected into one-sixth volume of acid/citrate/dextrose (ACD) buffer (85 mM sodium citrate, 65 mM citric acid, and 100 mM glucose). Collected blood is placed in a water bath at 37° C. for 30 minutes. Blood is then centrifuged at 275×g for 16 minutes at room temperature and the platelet-rich plasma is removed and centrifuged at 2200×g for 13 minutes at room temperature. The platelet pellet is resuspended in 40 mL of HEPES-buffered Tyrode's solution (137 mM NaCl, 2.7 mM KCl, 1 mM MgCl2, 2 mM CaCl2, 12 mM NaHCO3, 0.36 mM NaH2PO4, 5.5 mM glucose, 5 mM HEPES pH 7.4, 0.35% bovine serum albumin or 0.35% human serum albumin) containing 10 U/mL heparin and 5 μM (final concentration) prostaglandin 12 (PGI2). The platelet suspension is incubated in a 37° C. water bath for 10 minutes and then 5 μM (final conc.) PGI2 is added just before centrifugation at 1900×g for 8 minutes. The resulting pellet is resuspended in 40 mL of HEPES-buffered Tyrode's solution containing 5 μM (final concentration) PGI2 and then is incubated for 10 minutes in a 37° C. water bath. A small aliquot (500 μL) of the platelet suspension is removed for platelet counting. Prior to centrifugation 5 μM (final concentration) PGI2 is added to the suspension and then the suspension is centrifuged at 1900×g for 8 minutes. The pellet is resuspended at a density of 5×10^8 cells/mL in HEPES-buffered Tyrode's solution containing 0.05 U/mL apyrase.
Aggregation Studies: ADP-induced platelet aggregation is determined by measuring the transmission of light through a 0.5 ml suspension of stirred (1000 rpm) washed platelets in a lumi-aggregometer at 37° C. (Chrono-Log Corp. Havertown, Pa.). The baseline of the instrument is set using 0.5 ml of Hepes-buffered Tyrode's solution. Prior to aggregation measurements, the platelet suspension is supplemented with 1 mg/ml fibrinogen. Platelet aggregation is initiated by the addition of indicated concentrations of ADP or other agonists, and the light transmission is continuously recorded for at least 8 min. When inhibitors of platelet aggregation are tested, platelets are incubated for 2 min in the presence of indicated concentrations of inhibitor before addition of ADP or other agonists, and the response is recorded for at least 8 min. The potency of agonists and inhibitors of platelet aggregation is calculated from both the rate of aggregation and the maximal extent of aggregation obtained for each determination by fitting the data to a four-parameter logistic equation using the GraphPad software package (GraphPad Corp. San Diego, Calif.).
IC50 values represent the concentration of antagonist necessary to inhibit by 50% the aggregation elicited by a given concentration of ADP.
Platelet IC50 data were determined using washed human platelets, according to the protocol of example 14. Agonist challenge (ADP) typically in the range of 1-5 μM.

The mark [1] stands for this setting: read-out: PLATELET DATA IC50 (uM) Washed Platelets, washed human platelets.
Where [2] appears, read: Homo sapiens, Platelet, read-out: PLATELET DATA IC50 (uM) Washed Platelets, washed human platelets.

One may read the IC50 as the concentration at which inhibition is half-maximal. As for “2-{6-[6-(3-Ethyl-ureido)-purin-9-yl]-2-phenylethynyl-tetrahydro-furo[3,4-d][1,3]dioxol-4-ylmethoxy}-nicotinic acid [Compound 26]”, the “activity as antagonists of P2Y12-mediated platelet aggregation (in words)” value (“activity as antagonists” for short) (washed human platelets) is given as “show P2Y12 antagonist activity”. Besides, under setting [1], the half-maximal inhibitory concentration (IC50) came out at 1 µM.
Turning to `CCNC(=O)Nc1ncnc2c1ncn2C1OC(C(=O)N2CCC[C@H]2C(=O)O)C2OC(c3ccccc3)OC21` (stereo in doubt) [Compound 69, 1-{6-[6-(3-Ethyl-ureido)-purin-9-yl]-2-trans-phenyl-tetrahydro-furo[3,4-d][1,3]dioxole-4-carbonyl}-L-pyrrolidine-2-carboxylic acid], the “activity as antagonists” value (washed human platelets) is listed as “improved potency”. Moreover, the IC50 under setting [1] came to 0.441 µM.
For the compound `CC1(C)OC2C(COc3ccc(C(=O)O)cc3C(=O)O)OC(n3cnc4c(NC(=O)Nc5ccccc5)ncnc43)C2O1` (stereo not shown) [Compound 1, 4-{2,2-Dimethyl-6-[6-(3-phenyl-ureido)-purin-9-yl]-tetrahydro-furo[3,4-d][1,3]dioxol-4-ylmethoxy}-isophthalic acid], under setting [2], the IC50 amounted to 6.6 µM. In addition, the “activity as antagonists” value (washed human platelets) is “show P2Y12 antagonist activity”.
As for `O=C(Nc1ccccc1)Nc1ncnc2c1ncn2C1OC(COc2ncccc2C(=O)O)C2OC(c3ccccc3C(F)(F)F)OC21` (stereo not shown) [Compound 14, 2-[6-[6-(3-Phenyl-ureido)-purin-9-yl]-2-(2-trifluoromethyl-phenyl)-tetrahydro-furo[3,4-d][1,3]dioxol-4-ylmethoxy]-nicotinic acid], the half-maximal inhibitory concentration (IC50) under setting [2] is 8.1 µM. Where the note is “washed human platelets”, the “activity as antagonists” value is recorded as “show P2Y12 antagonist activity”.
For `O=C(Nc1ccccc1)Nc1ncnc2c1ncn2C1OC(COc2ncccc2C(=O)O)C2OC(c3ccc4ccccc4c3)OC21` (stereo not shown) [Compound 19, 2-{2-Naphthalen-2-yl-6-[6-(3-phenyl-ureido)-purin-9-yl]-tetrahydro-furo[3,4-d][1,3]dioxol-4-ylmethoxy}-nicotinic acid] the same measures were 18 µM and “show P2Y12 antagonist activity”.
For `CCCCCCNC(=O)Nc1ncnc2c1ncn2C1OC(COc2ncccc2C(=O)O)C2OC(c3ccccc3)OC21` (stereo not shown) [Compound 24, 2-{6-[6-(3-Hexyl-ureido)-purin-9-yl]-2-phenyl-tetrahydro-furo[3,4-d][1,3]dioxol-4-ylmethoxy}-nicotinic acid] the same measures were 2.15 µM and “show P2Y12 antagonist activity”.
For `O=C(Nc1ncnc2c1ncn2C1OC(C(=O)N2CCCC2C(=O)O)C2OC(Cc3ccccc3)OC21)NC1CCCC1` (stereo not shown) [Compound 36, 1-{2-Benzyl-6-[6-(3-cyclopentyl-ureido)-purin-9-yl]-tetrahydro-furo[3,4-d][1,3]dioxole-4-carbonyl}-pyrrolidine-2-carboxylic acid] the same measures were 0.75 µM and “show P2Y12 antagonist activity”.
In the case of `CS(=O)(=O)NC(=O)NCC1OC(n2cnc3c(NC(=O)Nc4ccccc4)ncnc32)C2OC(Cc3ccccc3)OC12` (stereo not shown) [Compound 37, 1-(9-{2-Benzyl-6-[(3-methylsulfonyl-ureido)-methyl]-tetrahydro-furo[3,4-d][1,3]dioxol-4-yl}-9H-purin-6-yl)-3-phenyl-urea], under setting [2], the 50% inhibitory concentration (IC50) amounted to 15 µM. In addition, the “activity as antagonists” value (washed human platelets) was “show P2Y12 antagonist activity”.
For `CCNC(=O)Nc1ncnc2c1ncn2C1OC(C(=O)N2CCC[C@H]2C(=O)O)C2O[C@H](c3ccccc3)OC21` (stereo partly drawn) [Compound 65, 1-{6-[6-(3-Ethyl-ureido)-purin-9-yl]-2-trans-phenyl-tetrahydro-furo[3,4-d][1,3]dioxole-4-carbonyl}-L-pyrrolidine-2-carboxylic acid] the same measures were 0.728 µM and “improved potency”.
For `CCNC(=O)Nc1ncnc2c1ncn2C1OC(C(=O)N2CCC[C@@H]2C(=O)O)C2O[C@H](/C=C/c3ccccc3)OC21` (stereo partly drawn) [Compound 70, 1-{6-[6-(3-Ethyl-ureido)-purin-9-yl]-2-trans-styryl-tetrahydro-furo[3,4-d][1,3]dioxole-4-carbonyl}-D-pyrrolidine-2-carboxylic acid] the same measures were 0.397 µM and “improved potency”.
`CCNC(=O)Nc1ncnc2c1ncn2C1OC(COCc2ccccc2C(=O)O)C2O[C@H](c3ccccc3)OC21` (stereo partly drawn) [Compound 107, 2-{6-[6-(3-Ethyl-ureido)-purin-9-yl]-2-trans-phenyl-tetrahydro-furo[3,4-d][1,3]dioxol-4-ylmethoxymethyl}-benzoic acid]: the IC50 reads like this: under setting [2], < 0.1 µM; under setting [1], 0.057 µM.
For `CCNC(=O)Nc1ncnc2c1ncn2C1OC(COCc2ccccc2C(=O)O)C2O[C@@H](c3ccccc3)OC21` (stereo partly drawn) [Compound 108, 2-{6-[6-(3-Ethyl-ureido)-purin-9-yl]-2-cis-phenyl-tetrahydro-furo[3,4-d][1,3]dioxol-4-ylmethoxymethyl}-benzoic acid] the same measures were < 0.1 µM and 0.098 µM.
Turning to `CCNC(=O)Nc1ncnc2c1ncn2C1CC(COCc2ncccc2C(=O)O)C2OC(/C=C/c3ccccc3)OC21` (stereo not drawn) [Compound 130, 2-{6-[6-(3-Ethyl-ureido)-purin-9-yl]-2-trans-styryl-tetrahydro-cyclopenta[1,3]dioxol-4-ylmethoxymethyl}-nicotinic acid], under setting [1], the IC50 was 0.057 µM.
Turning to `CCNC(=O)Nc1ncnc2c1ncn2C1OC(CCc2c(F)cccc2C(=O)O)C2O[C@H](c3ccccc3)OC21` (stereo partly drawn) [Compound 158, 2-(2-{6-[6-(3-Ethyl-ureido)-purin-9-yl]-2-trans-phenyl-tetrahydro-furo[3,4-d][1,3]dioxol-4-yl}-ethyl)-3-fluoro-benzoic acid], the IC50 under setting [2] turned out to be 8 µM. Further, under “washed human platelets”, the “activity as antagonists” value is reported as “active molecules”.
In the case of `CCNC(=O)Nc1ncnc2c1ncn2C1OC(CCC(=O)O)C2OC(C=Cc3ccccc3)OC21` (stereo not shown) [Compound 183, 3-{6-[6-(3-Ethyl-ureido)-purin-9-yl]-2-styryl-tetrahydro-furo[3,4-d][1,3]dioxol-4-yl}-propionic acid], under setting [2], the IC50 stood at 0.376 µM. Under “washed human platelets”, the “activity as antagonists” value is “P2Y12 antagonist activity can be obtained”.
`CCNC(=O)Nc1ncnc2c1ncn2C1CC(COCC(=O)O)C2OC(C=Cc3ccccc3)OC21` (stereo not drawn) [Compound 189, {6-[6-(3-Ethyl-ureido)-purin-9-yl]-2-trans-styryl-tetrahydro-cyclopenta[1,3]dioxol-4-ylmethoxy}-acetic acid]: the “activity as antagonists” value (washed human platelets) was “P2Y12 antagonist activity can be obtained”. The half-inhibitory concentration (IC50) under setting [1] is 0.243 µM.
`CCNC(=O)Nc1ncnc2c1ncn2C1OC(CNCC(=O)O)C2O[C@H](/C=C/c3ccccc3)OC21` (stereo partly drawn) [Compound 191, ({6-[6-(3-Ethyl-ureido)-purin-9-yl]-2-trans-styryl-tetrahydro-furo[3,4-d][1,3]dioxol-4-ylmethyl}-amino)-acetic acid]: under setting [2], the IC50 was found to be 0.512 µM. Besides, where the note is “washed human platelets”, the “activity as antagonists” value was “P2Y12 antagonist activity can be obtained”.
On the same counts, the results for `CCNC(=O)Nc1ncnc2c1ncn2C1OC(C(=O)O)C2O[C@H](/C=C/c3ccccc3)OC21` (stereo partly drawn) [Compound 210, 6-[6-(3-Ethyl-ureido)-purin-9-yl]-2-trans-styryl-tetrahydro-furo[3,4-d][1,3]dioxole-4-carboxylic acid] are 0.163 µM and “P2Y12 antagonist activity can be obtained”.
On the same counts, the results for `CCNC(=O)Nc1ncnc2c1ncn2C1CC(COC(=S)NCC(=O)O)C2O[C@H](/C=C/c3ccccc3)OC21` (stereo partly drawn) [Compound 233, {6-[6-(3-Ethyl-ureido)-purin-9-yl]-2-trans-styryl-tetrahydro-cyclopenta[1,3]dioxol-4-ylmethoxythiocarbonylamino}-acetic acid] are 0.503 µM and “show P2Y12 antagonist activity”.
